Key:
[1] = thiobarbituric acid assay (2-desoxy-D-ribose decomposition, Fe(II) Fenton reaction); format: biochemical; details: concentration dependent
Excerpt: In a third completely different method OH-radicals generated during a Fenton reaction decomposed 2-desoxy-D-ribose. This reaction was monitored by measuring the formation of malondialdehyde-like compounds known to yield coloured thiobarbituric acid adducts which were eventually recorded at 532 nm. […] This was attributed to the extraordinary stability of this compound surviving a hydroxyl radical burst A crucial question was the survival of these benzimidazoles during Fenton-type reactions. These stability measurements were conducted employing HPLC analysis allowing the detection of remaining intact primary compounds. The thiobarbituric acid assay was performed according to the method described earlier [10]300 μl 7.5 mM 2-desoxy-D-ribose were added to 1000 μl 10 mM potassium-phosphate buffer, pH 7.4 and incubated for 30 min. at 37° C. in the presence of 100 μl inhibitor compound and 100 μl 10 mM iron(II)ammonium sulphate. The total volume was 1.5 ml. The reaction was stopped by the addition of 1 ml 1% (w/v) thiobarbituric acid dissolved in 50 mM NaOH and 1 ml of 2.8% (w/v) trichloro acetic acid and maintained for 15 min at 95° C. The control reaction mixture contained the same volume of DMFas was present in the inhibitor compound. The dye was measured at 532 nm.

[2] = after oral administration; read-out: maximal concentration (Cmax) in plasma; cited from earlier work
[3] = stability under conditions of the Fenton reaction, HPLC analysis; format: physicochemical; details: 90 min of incubation, n=3
Excerpt: In a third completely different method OH-radicals generated during a Fenton reaction decomposed 2-desoxy-D-ribose. This reaction was monitored by measuring the formation of malondialdehyde-like compounds known to yield coloured thiobarbituric acid adducts which were eventually recorded at 532 nm. […] This was attributed to the extraordinary stability of this compound surviving a hydroxyl radical burst A crucial question was the survival of these benzimidazoles during Fenton-type reactions. These stability measurements were conducted employing HPLC analysis allowing the detection of remaining intact primary compounds. A 200 μl aliquot of the incubation mixture was analysed by HPLC using the analytical column Nucleosil C 8, 5 μm (125×4.6 mm, Fa. Grom, Herrenberg, Germany) and the precolumn was LiCHROPREP RP-2 (12×4 mm, Fa. Merck, Darmstadt, Germany) in a reverse phase. A gradient of acetonitrile (10-45% (v/v)) and 10 mM phosphate buffer, pH 7.4, at a flow rate of 1 ml min-1 was used as effluent on the analytical column.

[4] = OH-radical-dependent degradation of haeme group (Soret band at 408 nm), Cu/ascorbate Fenton reaction; format: biochemical, Bovine; details: for inhibition of heme degradation compared to control: dissolved in DMF; for inhibition of heme degradation: aqueous assay
Excerpt: A suitable assay is the inhibition of the OH-radical-dependent degradation of the heme system of heme proteins. The […] of the Soret band of the heme group can be conveniently quantified in the 350-450 nm region. An alternative assay used was the depolymerisation of hyaluronic acid by OH-radicals The progressive depolymerisation of this mucopolysaccharide was followed viscosimetrically and should be inhibited accordingly in the presence of the prazoles. Bovine erythrocytes were haemolysed and diluted with water to give an electronic absorption at 408 nm of 1.0. The assay was performed analogous to that of the myeloperoxidase enzymatic activity test where hypochlorite is produced which is known to degrade the heme group of heme proteins. To 574 μl of aqueous haeme solution in a thermostatted cuvette 6 μl of DMF or water and 10 μl of […] aqueous copper sulphate were added for 5 minutes. The reaction was started after the addition of 10 μl 50 μM ascorbic acid and the absorption followed at 37° C. for two minutes in the control experiment. Depending on the solubility the respective inhibitor was added in a volume of 6 μl in DMF or water. The total volume was 600 μl.

[5] = scavenging of hydroxyl radicals generated during a Fenton reaction (three assays); format: biochemical
Experimental: Bovine erythrocytes were haemolysed and diluted with water to give an electronic absorption at 408 nm of 1.0. The assay was performed analogous to that of the myeloperoxidase enzymatic activity test where hypochlorite is produced which is known to degrade the heme group of heme proteins. To 574 μl of aqueous haeme solution in a thermostatted cuvette 6 μl of DMF or water and 10 μl of […] aqueous copper sulphate were added for 5 minutes. The reaction was started after the addition of 10 μl 50 μM ascorbic acid and the absorption followed at 37° C. for two minutes in the control experiment. Depending on the solubility the respective inhibitor was added in a volume of 6 μl in DMF or water. The total volume was 600 μl. Depolymerisation of hyaluronic acid was measured in terms of viscosity change with time. Potassium hyaluronate was purchased from Sigma-Aldrich Chemie, Steinheim, Germany. All operations were performed at room temperature (22° C.). Relative viscosity was monitored by recording the time (seconds) required for a given volume (0.8 ml) of the reaction mixture to drain by gravity from the barrel of a plastic 1 ml syringe through a needle of appropriate size. The meniscus was timed as it passed between two calibration marks on the syringe barrel. […] The dye was measured at 532 nm.

[6] = superoxide radical scavenging system (superoxide dismutase assay using nitro tetrazolium chloride); format: biochemical
Experimental: In order to examine a possible reactivity of the substituted benzimidazoles with superoxide a standard superoxide dismutase assay using nitro tetrazolium chloride was employed. Scavengeing of hydroxyl radicals was measured by three different established methods.

[7] = depolymerisation of hyaluronic acid by OH-radicals, viscosimetric; format: biochemical
Excerpt: A suitable assay is the inhibition of the OH-radical-dependent degradation of the heme system of heme proteins. The […] of the Soret band of the heme group can be conveniently quantified in the 350-450 nm region. An alternative assay used was the depolymerisation of hyaluronic acid by OH-radicals The progressive depolymerisation of this mucopolysaccharide was followed viscosimetrically and should be inhibited accordingly in the presence of the prazoles. Depolymerisation of hyaluronic acid was measured in terms of viscosity change with time. Potassium hyaluronate was purchased from Sigma-Aldrich Chemie, Steinheim, Germany. All operations were performed at room temperature (22° C.). Relative viscosity was monitored by recording the time (seconds) required for a given volume (0.8 ml) of the reaction mixture to drain by gravity from the barrel of a plastic 1 ml syringe through a needle of appropriate size. The meniscus was timed as it passed between two calibration marks on the syringe barrel. […] The reaction was started with 30 μl of 50 mM ascorbic acid in presence of 10 mM phosphate buffer pH 7.2 and incubated for 5 minutes. […] When the water-soluble sodium salt of pantoprazole was examined only 2.5 μl 10 mM copper sulphate and 5 μl 50 mM ascorbic acid were needed to yield an appropriate depolymerization effect.

| Structure (SMILES) | inhibitory effect on OH-radical decomposition of desoxyribose [1] | Cmax [2] [µM] | decrease of intact compound after OH-radical exposure [3] [%] | inhibition of heme degradation compared to control ([4]; 50 μM) [%] | inhibition of heme degradation compared to control ([4]; 100 μM) [%] | scavenging of hydroxyl radicals [5] | reactivity in the superoxide radical scavenging system [6] | mucopolysaccharide degradation ([7]; 80 μM dissolved in DMF, within 20 min) [%] | inhibition of hyaluronic acid depolymerisation ([7]; 160 μM dissolved in DMF) | inhibition of heme degradation ([4]; 25 μM) | inhibition of heme degradation ([4]; 50 μM) [%] | inhibition of heme degradation ([4]; 100 μM) [%] | inhibition of hyaluronic acid depolymerisation ([7]; 12 μM, fully aqueous assay) [%] | biopolymer protected ([7]; 20 μM, fully aqueous assay) [%] |
| --- | --- | --- | --- | --- | --- | --- | --- | --- | --- | --- | --- | --- | --- | --- |
| COc1ccnc(C[S+]([O-])c2nc3ccc(OC(F)F)cc3[nH]2)c1OC (centres unmarked) [pantoprazole, 5-difluoromethoxy-2-[(3,4-dimethoxy-2-pyridinyl)methylsulphinyl]-1H-benzimidazole] | inhibitory effect was clearly seen | 5 to 10 | 15 | 36 | 75 | pronounced inhibitory reactivity | did not display detectable reactivity | 48 | nearly complete inhibition | – | – | – | – | – |
| COc1ccnc(C[S+]([O-])c2nc3ccc(OC(F)F)cc3[nH]2)c1OC (centres unmarked) [pantoprazole sodium] | – | – | – | – | – | – | – | – | – | distinct inhibition | 34 | 74 | 46 | 90 |

Reference: patent publication US20070027189A1, “Use of known active ingredients as radical scavengers” (Altana Pharma AG, priority 2003, published 2007)
